Test results published in patent US20240360177A1, “PEPTIDES WITH ANTIMICROBIAL ACTIVITIES” (priority 2021, published 2024).
Values after ≈ are worked out from the molar mass of the structure shown. Where two headings read alike, the source gives them in different places. Starred links: 1 amine or outer side, 2 acyl side, 3 side chain; linkers in the order of their positions; H or OH if unused. Non-standard residues stand in square brackets, D forms with d. Residues, ends and D or L forms follow the SMILES beside them. NH(CH2)9CO = O=C(CCCCCCCCCN[*:1])[*:2]; Aoc = NCCCCCCCC(=O)O; βAla = NCCC(=O)O

Assays:
C. neoformans = conditions: 72 h
Scedosporium spp. = conditions: 72 h
C. krusei = conditions: 24 h
C. auris = conditions: 24 h
C. tropicalis = conditions: 24 h
C. parapsilosis = conditions: 24 h
[1] = Acute toxicity in CD-1 mice; conditions: both sexes, mouse, in vivo
Protocol: Acute toxicity and subacute toxicity of ACPs were tested in CD-1 mice. In the acute toxicity study, groups of CD-1 male or female mice were administered single intravenous or intraperitoneal escalating doses (n=2-3 per dose) of the peptides dissolved in normal saline for injection or in phosphate buffered saline. The intravenous dose was administered via tail vein with a slow push over 15-20 seconds. Doses were escalated based on tolerability.

C. albicans = conditions: 24 h
C. dubliniensis = conditions: 24 h
in vitro = conditions: human, EC50 cytotoxicity in HepG2, intracellular ATP assay
C. gattii = conditions: 72 h
Fusarium spp. = conditions: 48 h
C. glabrata = conditions: 24 h
[2] = test system: Pseudomonas aeruginosa ATCC 27853; type: cell-based
[3] = test system: Staphylococcus aureus ATCC 29213; type: cell-based
[4] = test system: Escherichia coli ATCC 25922; type: cell-based
[5] = single IP dose, read-out: Tolerated single intraperitoneal dose
[6] = single IV dose via tail vein, read-out: Tolerated single intravenous dose

Compound | Activity at 24 h MIC50 against Candida spp. (Candida spp.) | Activity at 24 h MIC90 against Candida spp. (Candida spp.) | Activity at 48 h MIC50 against Candida spp. (Candida spp.) | Activity at 48 h MIC90 against Candida spp. (Candida spp.) | MIC C. neoformans (C. neoformans) | MIC Range Scedosporium spp. (Scedosporium spp.) | MIC C. krusei (C. krusei) | MIC C. auris (C. auris) | MIC C. tropicalis (C. tropicalis) | MIC C. parapsilosis (C. parapsilosis) | MTD [1, 5] | MTD [1, 6] | MIC C. albicans (C. albicans) | MIC C. dubliniensis (C. dubliniensis) | EC50 (in vitro) | MIC C. gattii (C. gattii) | MIC Range Fusarium spp. (Fusarium spp.) | MIC C. glabrata (C. glabrata) | MIC Pseudomonas aeruginosa [2] | MIC Staphylococcus aureus [3] | other results
N=C(N)NCCC[C@@H](N)C(=O)N[C@H](CCCNC(=N)N)C(=O)N[C@H](CCCNC(=N)N)C(=O)NCCC(=O)N[C@H](CCCNC(=N)N)C(=O)N[C@H](CCCNC(=N)N)C(=O)N[C@H](CCCNC(=N)N)C(=O)NCCC(=O)N[C@H](CCCNC(=N)N)C(=O)N[C@H](CCCNC(=N)N)C(=O)N[C@H](CCCNC(=N)N)C(=O)N[C@H](CCCNC(=N)N)C(=O)NCCC(=O)N[C@H](CCCNC(=N)N)C(=O)N[C@H](CCCNC(=N)N)C(=O)N[C@H](CCCNC(=N)N)C(=O)N[C@H](CCCNC(=N)N)C(N)=O [SEQ ID NO: 14, rrr-(Apr)-rrr-(Apr)-rrrr-(Apr)-rrrr-NH2] (H-[dR][dR][dR][βAla][dR][dR][dR][βAla][dR][dR][dR][dR][βAla][dR][dR][dR][dR]-NH2) | – | – | – | – | 0.5 µg/mL (≈ 0.207 µM) | 0.25 µg/mL (≈ 0.103 µM) | 0.5 µg/mL (≈ 0.207 µM) | 0.5 µg/mL (≈ 0.207 µM) | 0.25 µg/mL (≈ 0.103 µM) | 0.12 µg/mL (≈ 0.0497 µM) | 10 to 15 mg/kg | 5 to 7.5 mg/kg | 1 µg/mL (≈ 0.414 µM) | 0.5 µg/mL (≈ 0.207 µM) | > 300 µg/mL | 0.25 µg/mL (≈ 0.103 µM) | 0.12 to 0.25 µg/mL | 0.5 µg/mL (≈ 0.207 µM) | – | – | MIC50 Candida species (Candida spp.): 0.5 µg/mL (≈ 0.207 µM); MIC90 Candida species (Candida spp.): 2 µg/mL (≈ 0.828 µM)
N=C(N)NCCC[C@@H](N)C(=O)N[C@@H](CCCNC(=N)N)C(=O)N[C@H](CCCNC(=N)N)C(=O)NCCC(=O)N[C@H](CCCNC(=N)N)C(=O)N[C@@H](CCCNC(=N)N)C(=O)N[C@H](CCCNC(=N)N)C(=O)NCCC(=O)N[C@H](CCCNC(=N)N)C(=O)N[C@@H](CCCNC(=N)N)C(=O)N[C@H](CCCNC(=N)N)C(=O)N[C@@H](CCCNC(=N)N)C(=O)NCCC(=O)O [SEQ ID NO: 17, rRr-(Apr)-rRr-(Apr)-rRrR-(Apr)] (H-[dR]R[dR][βAla][dR]R[dR][βAla][dR]R[dR]R[βAla]-OH) | – | – | – | – | 64 µg/mL (≈ 35.7 µM) | – | 1 µg/mL (≈ 0.558 µM) | >64 µg/mL | 4 µg/mL (≈ 2.23 µM) | 2 µg/mL (≈ 1.12 µM) | – | – | 4 µg/mL (≈ 2.23 µM) | 8 µg/mL (≈ 4.46 µM) | > 300 µg/mL | 8 µg/mL (≈ 4.46 µM) | 16 to 64 µg/mL | >64 µg/mL | >64 µg/mL | >64 µg/mL | MIC Escherichia coli [4]: >64 µg/mL
N=C(N)NCCC[C@@H](N)C(=O)N[C@@H](CCCNC(=N)N)C(=O)N[C@H](CCCNC(=N)N)C(=O)NCCCCCCCCCC(=O)N[C@H](CCCNC(=N)N)C(=O)N[C@@H](CCCNC(=N)N)C(=O)N[C@H](CCCNC(=N)N)C(=O)NCCCCCCCC(=O)N[C@H](CCCNC(=N)N)C(=O)N[C@@H](CCCNC(=N)N)C(=O)N[C@H](CCCNC(=N)N)C(=O)N[C@@H](CCCNC(=N)N)C(=O)NCCCCCCCC(=O)N[C@H](CCCNC(=N)N)C(=O)N[C@@H](CCCNC(=N)N)C(=O)N[C@H](CCCNC(=N)N)C(=O)N[C@@H](CCCNC(=N)N)C(N)=O [SEQ ID NO: 33, rRr-(Ada)-rRr-(Aoa)-rRrR-(Aoa)-rRrR-NH2] (H-[dR]R[dR][NH(CH2)9CO][dR]R[dR][Aoc][dR]R[dR]R[Aoc][dR]R[dR]R-NH2) | – | – | – | – | 0.25 µg/mL (≈ 0.0941 µM) | 0.25 µg/mL (≈ 0.0941 µM) | 0.5 µg/mL (≈ 0.188 µM) | 0.5 µg/mL (≈ 0.188 µM) | 0.5 µg/mL (≈ 0.188 µM) | 0.5 µg/mL (≈ 0.188 µM) | 10 to 15 mg/kg | 5 to 7.5 mg/kg | 1 µg/mL (≈ 0.377 µM) | 0.25 µg/mL (≈ 0.0941 µM) | > 300 µg/mL | 0.5 µg/mL (≈ 0.188 µM) | 0.25 to 0.5 µg/mL | 0.5 µg/mL (≈ 0.188 µM) | 32 µg/mL (≈ 12.1 µM) | 16 µg/mL (≈ 6.03 µM) | MIC Escherichia coli [4]: 16 µg/mL (≈ 6.03 µM)
N=C(N)NCCC[C@H](NC(=O)[C@@H](CCCNC(=N)N)NC(=O)[C@@H](N)CCCNC(=N)N)C(=O)N[C@H](CCCNC(=N)N)C(=O)N1CCC[C@H]1C(=O)N[C@H](CCCNC(=N)N)C(=O)N[C@@H](CCCNC(=N)N)C(=O)N[C@H](CCCNC(=N)N)C(=O)N1CCC[C@H]1C(=O)N[C@@H](CCCNC(=N)N)C(=O)N[C@H](CCCNC(=N)N)C(=O)N[C@@H](CCCNC(=N)N)C(=O)N1CCC[C@H]1C(=O)N[C@H](CCCNC(=N)N)C(=O)N[C@@H](CCCNC(=N)N)C(=O)N[C@H](CCCNC(=N)N)C(N)=O [SEQ ID NO: 65, RrRr-P-rRr-P-RrR-P-rRr-NH2] (H-R[dR]R[dR]P[dR]R[dR]PR[dR]RP[dR]R[dR]-NH2) | 0.5 µg/mL | 2 µg/mL | 0.5 µg/mL | 32 µg/mL | – | – | 0.5 µg/mL (≈ 0.214 µM) | 0.5 µg/mL (≈ 0.214 µM) | 0.5 µg/mL (≈ 0.214 µM) | 0.25 µg/mL (≈ 0.107 µM) | – | – | 0.25 µg/mL (≈ 0.107 µM) | 0.5 µg/mL (≈ 0.214 µM) | > 300 µg/mL | – | – | 0.5 µg/mL (≈ 0.214 µM) | – | – | –

Second part, led by results:

Activity at 24 h MIC50 against Candida spp. (Candida spp.) | Activity at 24 h MIC90 against Candida spp. (Candida spp.) | Activity at 48 h MIC50 against Candida spp. (Candida spp.) | Activity at 48 h MIC90 against Candida spp. (Candida spp.) | Compound | MIC C. neoformans (C. neoformans) | MIC Range Scedosporium spp. (Scedosporium spp.) | MIC C. krusei (C. krusei) | MIC C. auris (C. auris) | MIC C. tropicalis (C. tropicalis) | MIC C. parapsilosis (C. parapsilosis) | MTD [1, 5] | MTD [1, 6] | MIC C. albicans (C. albicans) | MIC C. dubliniensis (C. dubliniensis) | EC50 (in vitro) | MIC C. gattii (C. gattii) | MIC Range Fusarium spp. (Fusarium spp.) | MIC C. glabrata (C. glabrata) | MIC Pseudomonas aeruginosa [2] | MIC Staphylococcus aureus [3] | other results
0.5 µg/mL | 1 µg/mL | 1 µg/mL | 2 µg/mL | N=C(N)NCCC[C@H](NC(=O)[C@@H](CCCNC(=N)N)NC(=O)[C@H](CCCNC(=N)N)NC(=O)[C@@H](CCCNC(=N)N)NC(=O)[C@@H]1CCCN1C(=O)[C@H](CCCNC(=N)N)NC(=O)[C@@H](CCCNC(=N)N)NC(=O)[C@H](CCCNC(=N)N)NC(=O)[C@@H](CCCNC(=N)N)NC(=O)[C@@H]1CCCN1C(=O)[C@@H](CCCNC(=N)N)NC(=O)[C@H](CCCNC(=N)N)NC(=O)[C@@H](CCCNC(=N)N)NC(=O)[C@@H]1CCCN1C(=O)[C@@H](CCCNC(=N)N)NC(=O)[C@H](CCCNC(=N)N)NC(=O)[C@@H](CCCNC(=N)N)NC(=O)[C@@H](N)CCCNC(=N)N)C(N)=O [SEQ ID NO: 63, RrRr-P-rRr-P-rRrR-P-rRrR-NH2] (H-R[dR]R[dR]P[dR]R[dR]P[dR]R[dR]RP[dR]R[dR]R-NH2) | – | – | 0.5 µg/mL (≈ 0.189 µM) | 0.5 µg/mL (≈ 0.189 µM) | 0.5 µg/mL (≈ 0.189 µM) | 0.5 µg/mL (≈ 0.189 µM) | – | – | 0.5 µg/mL (≈ 0.189 µM) | 0.5 µg/mL (≈ 0.189 µM) | > 300 µg/mL | – | – | 0.5 µg/mL (≈ 0.189 µM) | – | – | –
0.5 µg/mL | 1 µg/mL | 0.5 µg/mL | 2 µg/mL | N=C(N)NCCC[C@H](NC(=O)[C@@H](CCCNC(=N)N)NC(=O)[C@H](CCCNC(=N)N)NC(=O)[C@@H](CCCNC(=N)N)NC(=O)[C@@H]1CCCN1C(=O)[C@H](CCCNC(=N)N)NC(=O)[C@@H](CCCNC(=N)N)NC(=O)[C@H](CCCNC(=N)N)NC(=O)[C@@H](CCCNC(=N)N)NC(=O)[C@@H]1CCCN1C(=O)[C@H](CCCNC(=N)N)NC(=O)[C@@H](CCCNC(=N)N)NC(=O)[C@H](CCCNC(=N)N)NC(=O)[C@@H](CCCNC(=N)N)NC(=O)[C@@H]1CCCN1C(=O)[C@@H](CCCNC(=N)N)NC(=O)[C@H](CCCNC(=N)N)NC(=O)[C@@H](CCCNC(=N)N)NC(=O)[C@@H](N)CCCNC(=N)N)C(N)=O [SEQ ID NO: 64, RrRr-P-rRrR-P-rRrR-P-rRrR-NH2] (H-R[dR]R[dR]P[dR]R[dR]RP[dR]R[dR]RP[dR]R[dR]R-NH2) | – | – | 0.5 µg/mL (≈ 0.178 µM) | 0.5 µg/mL (≈ 0.178 µM) | 0.5 µg/mL (≈ 0.178 µM) | 0.5 µg/mL (≈ 0.178 µM) | – | – | 0.5 µg/mL (≈ 0.178 µM) | 0.5 µg/mL (≈ 0.178 µM) | > 300 µg/mL | – | – | 0.5 µg/mL (≈ 0.178 µM) | – | – | –
